In the experiment the test system is Tunicamycin induced ISR (ATF4 signal ratio between nucleus and cytoplasm) in wild-type HEK293 cells. Put plainly: HEK-ATF4 High Content Imaging assay. To be noted: Homo sapiens, prevention of Tunicamycin induced ISR, 6 h incubation, ATF4 immunofluorescence nucleus/cytoplasm ratio. Format: cell-based. Here is the method: HEK-ATF4 High Content Imaging Assay
Example compounds were tested in the HEK-ATF4 High Content Imaging assay to assess their pharmacological potency to prevent Tunicamycin induced ISR. Wild-type HEK293 cells were plated in 384-well imaging assay plates at a density of 12,000 cells per well in growth medium (containing DMEM/F12, 10% FBS, 2 mM L-Glutamine, 100 U/mL Penicillin—100 μg/mL Streptomycin) and incubated at 37° C., 5% CO2. 24 h later, the medium was changed to 50 μL assay medium per well (DMEM/F12, 0.3% FBS, 2 mM L-Glutamine, 100 U/mL Penicillin—100 μg/mL Streptomycin). Example compounds were serially diluted in DMSO, spotted into intermediate plates and prediluted with assay medium containing 3.3 μM Tunicamycin to give an 11-fold excess of final assay concentration. In addition to the example compound testing area, the plates also contained multiples of control wells for assay normalization purposes, wells containing Tunicamycin but no example compounds (High control), as well as wells containing neither example compound nor Tunicamycin (Low control). The assay was started by transferring 5 μL from the intermediate plate into the assay plates, followed by incubation for 6 h at 37° C., 5% CO2. Subsequently, cells were fixed (4% PFA in PBS, 20 min at r.t.) and submitted to indirect ATF4 immunofluorescence staining (primary antibody rabbit anti ATF4, clone D4B8, Cell Signaling Technologies; secondary antibody Alexa Fluor 488 goat anti-rabbit IgG (H+L), Thermofisher Scientific). Nuclei were stained using Hoechst dye (Thermofisher Scientific), and plates were imaged on an Opera Phenix High Content imaging platform equipped with 405 nm and 488 nm excitation. Finally, images were analyzed using script based algorithms. The main readout HEK-ATF4 monitored the ATF4 signal ratio between nucleus and cytoplasm. Tunicamycin induced an increase in the overall ATF4 ratio signal, which was prevented by ISR modulating example compounds. In addition, HEK-CellCount readout was derived from counting the number of stained nuclei corresponding to healthy cells. This readout served as an internal toxicity control.

Molecules are shown by their SMILES.

For orientation: IC50 means the point on the concentration scale where inhibition reaches its midpoint. For the compound `O=C(N[C@H]1CC[C@H](c2nnc(OCCOC(F)(F)F)o2)NC1)c1cc2ccc(Cl)cn2c1` [Example 21, 6-chloro-N-[(3S,6R)-6-{5-[2-(trifluoromethoxy)ethoxy]-1,3,4-oxadiazol-2-yl}piperidin-3-yl]indolizine-2-carboxamide], the 50% inhibitory concentration (IC50) lay within 1 to 500 nM.
Under `O=C(N[C@H]1CC[C@H](c2nnc(OCCOC(F)(F)F)o2)NC1)c1ccc(Cl)c(Cl)n1` [Example 39, 5,6-dichloro-N-[(3S,6R)-6-{5-[2-(trifluoromethoxy)ethoxy]-1,3,4-oxadiazol-2-yl}piperidin-3-yl]pyridine-2-carboxamide] stands 2000 to 15000 nM; under `O=C(N[C@H]1CC[C@H](c2nnc(OCCOC(F)(F)F)o2)NC1)c1cnc2cc(Cl)ccc2c1` [Example 3, 7-chloro-N-[(3S,6R)-6-{5-[2-(trifluoromethoxy)ethoxy]-1,3,4-oxadiazol-2-yl}piperidin-3-yl]quinoline-3-carboxamide], 1 to 500 nM; under `Cc1ccc(C(=O)N[C@H]2CC[C@H](c3nnc(OCCOC(F)(F)F)o3)NC2)cc1Cl` [Example 44, 3-chloro-4-methyl-N-[(3S,6R)-6-[5-[2-(trifluoromethoxy)ethoxy]-1,3,4-oxadiazol-2-yl]-3-piperidyl]benzamide], 500 to 2000 nM.
In the case of `O=C(N[C@H]1CC[C@H](c2nnc(OCCOC(F)(F)F)o2)NC1)c1ccc(Cl)cc1` [Example 18, 4-chloro-N-[(3S,6R)-6-{5-[2-(trifluoromethoxy)ethoxy]-1,3,4-oxadiazol-2-yl}piperidin-3-yl]benzamide], the IC50 fell in the range of 2000 to 15000 nM.
In the case of `Cc1cc(C(=O)N[C@H]2CC[C@H](c3nnc(OCCOC(F)(F)F)o3)NC2)sc1C` [Example 26, 4,5-dimethyl-N-[(3S,6R)-6-{5-[2-(trifluoromethoxy)ethoxy]-1,3,4-oxadiazol-2-yl}piperidin-3-yl]thiophene-2-carboxamide] it was 2000 to 15000 nM; in that of `O=C(N[C@H]1CC[C@H](c2nnc(OCCOC(F)(F)F)o2)NC1)c1ccc(OC(F)(F)F)nc1` [Example 16, 6-(trifluoromethoxy)-N-[(3S,6R)-6-{5-[2-(trifluoromethoxy)ethoxy]-1,3,4-oxadiazol-2-yl}piperidin-3-yl]pyridine-3-carboxamide], 500 to 2000 nM; in that of `Cc1cc(C)cc(C(=O)N[C@H]2CC[C@H](c3nnc(OCCOC(F)(F)F)o3)NC2)c1` [Example 24, 3,5-dimethyl-N-[(3S,6R)-6-{5-[2-(trifluoromethoxy)ethoxy]-1,3,4-oxadiazol-2-yl}piperidin-3-yl]benzamide], 2000 to 15000 nM.
Consider `O=C(N[C@H]1CC[C@H](c2nnc(OCCOC(F)(F)F)o2)NC1)c1cnc2cc(Cl)c(F)cc2c1` [Example 11, 7-chloro-6-fluoro-N-[(3S,6R)-6-{5-[2-(trifluoromethoxy)ethoxy]-1,3,4-oxadiazol-2-yl}piperidin-3-yl]quinoline-3-carboxamide], for which the IC50 was 1 to 500 nM.
As to `O=C(N[C@H]1CC[C@H](c2nnc(OCCOC(F)(F)F)o2)NC1)c1ccc2cc(Cl)cnc2c1` [Example 10, 3-chloro-N-[(3S,6R)-6-{5-[2-(trifluoromethoxy)ethoxy]-1,3,4-oxadiazol-2-yl}piperidin-3-yl]quinoline-7-carboxamide], the IC50 lay in the range of 500 to 2000 nM.
Under `O=C(N[C@@H]1CC[C@@H](c2nnc(OCCOC(F)(F)F)o2)NC1)c1cnc2cc(Cl)ccc2c1` [Example 49, 7-chloro-N-[(3R,6S)-6-[5-[2-(trifluoromethoxy)ethoxy]-1,3,4-oxadiazol-2-yl]-3-piperidyl]quinoline-3-carboxamide] stands 1 to 500 nM; under `O=C(N[C@H]1CC[C@H](c2nnc(OCCOC(F)(F)F)o2)NC1)c1cc2cc(Cl)ccn2c1` [Example 20, 7-chloro-N-[(3S,6R)-6-{5-[2-(trifluoromethoxy)ethoxy]-1,3,4-oxadiazol-2-yl}piperidin-3-yl]indolizine-2-carboxamide], 1 to 500 nM; under `Cc1ccc(C(=O)N[C@H]2CC[C@H](c3nnc(OCCOC(F)(F)F)o3)NC2)cc1` [Example 27, 4-methyl-N-[(3S,6R)-6-{5-[2-(trifluoromethoxy)ethoxy]-1,3,4-oxadiazol-2-yl}piperidin-3-yl]benzamide], 2000 to 15000 nM.
As for `O=C(N[C@H]1CC[C@H](c2nnc(OCCOC(F)(F)F)o2)NC1)c1ccc(Cl)c(OC(F)(F)F)c1` [Example 40, 4-chloro-3-(trifluoromethoxy)-N-[(3S,6R)-6-{5-[2-(trifluoromethoxy)ethoxy]-1,3,4-oxadiazol-2-yl}piperidin-3-yl]benzamide], the IC50 lay within 2000 to 15000 nM.
In the case of `O=C(N[C@H]1CC[C@H](c2nnc(OCCOC(F)(F)F)o2)NC1)c1ccc(OC(F)(F)F)cc1` [Example 29, 4-(trifluoromethoxy)-N-[(3S,6R)-6-{5-[2-(trifluoromethoxy)ethoxy]-1,3,4-oxadiazol-2-yl}piperidin-3-yl]benzamide], the IC50 lay within 1 to 500 nM.
In the case of `O=C(N[C@H]1CC[C@H](c2nnc(OCCOC(F)(F)F)o2)NC1)c1ccc(F)c(C(F)(F)F)c1` [Example 35, 4-fluoro-N-[(3S,6R)-6-{5-[2-(trifluoromethoxy)ethoxy]-1,3,4-oxadiazol-2-yl}piperidin-3-yl]-3-(trifluoromethyl)benzamide] it was 2000 to 15000 nM; in that of `O=C(N[C@H]1CC[C@H](c2nnc(OCCOC(F)(F)F)o2)NC1)c1ccc(Cl)c(Cl)c1` [Example 17, 3,4-dichloro-N-[(3S,6R)-6-{5-[2-(trifluoromethoxy)ethoxy]-1,3,4-oxadiazol-2-yl}piperidin-3-yl]benzamide], 500 to 2000 nM.
Under `O=C(N[C@H]1CO[C@H](c2nnc(OCCOC(F)(F)F)o2)OC1)c1cnc2cc(Cl)ccc2c1` [Example 55, 7-chloro-N-[trans-2-{5-[2-(trifluoromethoxy)ethoxy]-1,3,4-oxadiazol-2-yl}-1,3-dioxan-5-yl]quinoline-3-carboxamide] stands 1 to 500 nM.
As for `O=C(N[C@@H]1CC[C@@H](c2nnc([C@H]3C[C@@H](OC(F)(F)F)C3)o2)NC1)c1cnc2cc(Cl)ccc2c1` [Example 52, 7-chloro-N-[(3R,6S)-6-{5-[(1s,3s)-3-(trifluoromethoxy)cyclobutyl]-1,3,4-oxadiazol-2-yl}piperidin-3-yl]quinoline-3-carboxamide], the IC50 was in the range of 1 to 500 nM.
Turning to `O=C(N[C@H]1CC[C@H](c2nnc(OCCOC(F)(F)F)o2)NC1)c1cc2ccc(Cl)cc2cn1` [Example 5, 7-chloro-N-[(3S,6R)-6-{5-[2-(trifluoromethoxy)ethoxy]-1,3,4-oxadiazol-2-yl}piperidin-3-yl]isoquinoline-3-carboxamide], the IC50 fell in the range of 500 to 2000 nM.
Under `O=C(N[C@H]1CC[C@H](c2nnc(OCCOC(F)(F)F)o2)NC1)c1cc2cc(Cl)ccn2n1` [Example 12, 5-chloro-N-[(3S,6R)-6-{5-[2-(trifluoromethoxy)ethoxy]-1,3,4-oxadiazol-2-yl}piperidin-3-yl]pyrazolo[1,5-a]pyridine-2-carboxamide] stands 500 to 2000 nM.
For `Cc1ccc(C(=O)N[C@H]2CC[C@H](c3nnc(OCCOC(F)(F)F)o3)NC2)cc1C` [Example 25, 3,4-dimethyl-N-[(3S,6R)-6-{5-[2-(trifluoromethoxy)ethoxy]-1,3,4-oxadiazol-2-yl}piperidin-3-yl]benzamide], the IC50 is 2000 to 15000 nM.
Under `O=C(N[C@H]1CC[C@H](c2nnc(OCCOC(F)(F)F)o2)NC1)C1=Cc2ccc(Cl)cc2OC1` [Example 4, 7-chloro-N-[(3S,6R)-6-{5-[2-(trifluoromethoxy)ethoxy]-1,3,4-oxadiazol-2-yl}piperidin-3-yl]-2H-chromene-3-carboxamide] stands 1 to 500 nM; under `O=C(N[C@H]1CC[C@H](c2nnc(OCCOC(F)(F)F)o2)NC1)c1cc(F)c(Cl)c(F)c1` [Example 32, 4-chloro-3,5-difluoro-N-[(3S,6R)-6-{5-[2-(trifluoromethoxy)ethoxy]-1,3,4-oxadiazol-2-yl}piperidin-3-yl]benzamide], 2000 to 15000 nM; under `O=C(N[C@H]1CC[C@H](c2nnc(OCCOC(F)(F)F)o2)NC1)c1cc(Cl)c(Cl)cn1` [Example 38, 4,5-dichloro-N-[(3S,6R)-6-{5-[2-(trifluoromethoxy)ethoxy]-1,3,4-oxadiazol-2-yl}piperidin-3-yl]pyridine-2-carboxamide], 2000 to 15000 nM.
Take `O=C(N[C@H]1CC[C@H](c2nnc(OCCOC(F)(F)F)o2)NC1)c1ccc(OCC(F)(F)F)nc1` [Example 13, 6-(2,2,2-trifluoroethoxy)-N-[(3S,6R)-6-{5-[2-(trifluoromethoxy)ethoxy]-1,3,4-oxadiazol-2-yl}piperidin-3-yl]pyridine-3-carboxamide]: the IC50 lay in the range of 2000 to 15000 nM.
Turning to `O=C(N[C@H]1CC[C@H](c2nnc(OCCOC(F)(F)F)o2)NC1)c1cc2cc(Cl)ccc2o1` [Example 9, 5-chloro-N-[(3S,6R)-6-{5-[2-(trifluoromethoxy)ethoxy]-1,3,4-oxadiazol-2-yl}piperidin-3-yl]-1-benzofuran-2-carboxamide], the IC50 lay in the range of 1 to 500 nM.

These data come from US20230391763A1, “MODULATORS OF THE INTEGRATED STRESS RESPONSE PATHWAY” (Evotec International GmbH, priority 2020, published 2023).
